Reference: patent publication EP0343367A1, “Mercapto-compounds having mucolytic action and a process for their preparation” (CAMILLO CORVI S.p.A., priority 1988, dated 1989)
Like-named read-outs stand apart in the source and are kept apart here.

Key:
[1] = tested on: rat; experiment: Expectorating activity in the rat (method of K. Kogi et al.); assay type: in vivo; settings: os, read-out: Expectorating activity in the rat, ED₅₀ os
Description: (§1) The following table indicates e.g. the bronchial secretion stimulating and mucolytic activity of the compound 10 (R⁴=H, R⁵=OH) as compared to sobrerol.

[2] = tested on: healthy rabbit; experiment: Production of mucus in the healthy rabbit (method of R. Scuri et al.); assay type: in vivo; settings: Oryctolagus cuniculus, administration route: oral
Description: as §1

[3] = read-out: Production of mucus in the healthy rabbit: No.of animals/increase, ED₅₀
[4] = read-out: Production of mucus in the healthy rabbit: Production of mucus, ED₅₀

Structure (SMILES): CC(C)(O)C1CC=C(CS)C(O)C1 (stereo not drawn) [Compound 10, 2-hydroxy-4-(1-hydroxy-1-methylethyl)-6-cyclohexene-1-methanethiol]
- ED50 [1]: 100 mg/kg
- ED50 [2, 3]: 400 mg/kg
- ED50 [2, 4]: 400 mg/kg

Structure (SMILES): CC1=CCC(C(C)(C)O)CC1O (stereo not drawn) [Sobrerol]
- ED50 [1]: 40 mg/kg
- ED50 [2, 3]: 500 mg/kg
- ED50 [2, 4]: 500 mg/kg
